From ChEMBL document CHEMBL1153960, “Syntheses of novel high affinity ligands for opioid receptors” (Bioorg Med Chem Lett, 2009) come the findings set out here.

Assay [1] has as its target T1, Delta-type opioid receptor (Homo sapiens, UniProt P41143). The experiment in a line: biochemical.
Assay [2] deals with T2, Kappa-type opioid receptor (Homo sapiens, UniProt P41145). The experiment in a line: Antagonist activity against human kappa opioid receptor expressed in CHO cells assessed as inhibition of U50488-stimulated [35S]GTPgammaS binding.
T2 sequence (P41145 whole entry): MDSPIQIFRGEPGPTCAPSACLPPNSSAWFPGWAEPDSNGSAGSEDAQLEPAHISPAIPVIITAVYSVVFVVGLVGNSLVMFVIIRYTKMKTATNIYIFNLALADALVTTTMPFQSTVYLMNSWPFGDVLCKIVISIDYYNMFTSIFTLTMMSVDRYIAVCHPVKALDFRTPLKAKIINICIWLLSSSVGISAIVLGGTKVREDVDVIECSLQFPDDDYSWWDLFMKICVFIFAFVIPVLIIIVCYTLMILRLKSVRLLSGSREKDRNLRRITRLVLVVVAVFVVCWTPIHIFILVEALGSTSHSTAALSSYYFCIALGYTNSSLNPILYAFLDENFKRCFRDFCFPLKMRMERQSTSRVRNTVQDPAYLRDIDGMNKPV
Assay [3] concerns the target T3, Mu-type opioid receptor (Homo sapiens, UniProt P35372). The experiment in a line: biochemical.
Assay [4] concerns the target T2, Kappa-type opioid receptor. The experiment in a line: Displacement of [3H]U69,593 from human kappa opioid receptor expressed in CHO cells after 60 mins by scintillation counting.
Assay [5] addresses T3, Mu-type opioid receptor. Description: biochemical. The source holds these as a separate data set.
The target of assay [6] is T3, Mu-type opioid receptor. Description: biochemical. This is another data set of the same source.
Description: Agonist activity at human mu opioid receptor expressed in CHO cells assessed as stimulation of [35S]GTPgammaS binding
Assay [7] addresses T1, Delta-type opioid receptor. The experiment in a line: biochemical. This is another data set of the same source.
Assay [8] addresses T1, Delta-type opioid receptor. Description: biochemical. The source holds these as a separate data set.
Description: Agonist activity at human delta opioid receptor expressed in CHO cells assessed as stimulation of [35S]GTPgammaS binding
The target in assay [9] is T2, Kappa-type opioid receptor. Particulars: CHO, 10 uM.
The target of assay [10] is T3, Mu-type opioid receptor. Particulars: CHO, 10 uM.
In assay [11] the target is T2, Kappa-type opioid receptor. Description: Agonist activity at human kappa opioid receptor expressed in CHO cells assessed as stimulation of [35S]GTPgammaS binding.

T1 sequence (P41143 whole entry): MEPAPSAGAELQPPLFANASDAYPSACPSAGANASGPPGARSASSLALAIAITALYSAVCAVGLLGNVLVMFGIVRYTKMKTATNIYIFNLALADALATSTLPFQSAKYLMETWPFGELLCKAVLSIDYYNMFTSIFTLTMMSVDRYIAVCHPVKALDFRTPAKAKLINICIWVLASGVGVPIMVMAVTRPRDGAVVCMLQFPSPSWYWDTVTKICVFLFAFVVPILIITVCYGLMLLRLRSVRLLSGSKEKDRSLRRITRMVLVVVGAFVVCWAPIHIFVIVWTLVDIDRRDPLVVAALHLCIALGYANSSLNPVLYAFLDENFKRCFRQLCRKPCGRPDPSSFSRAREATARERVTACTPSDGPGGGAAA
T3 sequence (P35372 whole entry): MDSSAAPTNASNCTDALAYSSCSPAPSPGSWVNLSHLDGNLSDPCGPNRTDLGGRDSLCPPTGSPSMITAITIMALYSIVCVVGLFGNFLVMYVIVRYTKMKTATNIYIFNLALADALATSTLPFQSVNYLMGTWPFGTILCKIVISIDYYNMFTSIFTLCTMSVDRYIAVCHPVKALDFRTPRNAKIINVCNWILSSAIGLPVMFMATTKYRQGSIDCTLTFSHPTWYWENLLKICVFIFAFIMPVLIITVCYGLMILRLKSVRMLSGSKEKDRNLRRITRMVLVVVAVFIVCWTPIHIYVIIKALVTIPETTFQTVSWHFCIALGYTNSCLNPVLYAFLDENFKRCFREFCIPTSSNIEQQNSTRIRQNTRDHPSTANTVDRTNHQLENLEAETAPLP

Take `Oc1ccc2c3c1O[C@H]1CCC[C@@]4(O)[C@@H](C2)N(CC2CC2)CC[C@]314`: the Ki in [1] was 79 nM; on Mu-type opioid receptor [3], 0.24 nM; in assay [4], 0.24 nM. Besides, the IC50 in assay [2] came to 13 nM; on Mu-type opioid receptor [5], 4.4 nM.
As for `NC(=O)c1ccc2c3c1O[C@H]1C(=O)CC[C@@]4(O)[C@@H](C2)N(CC2CC2)CC[C@]314`, it took 4.9 nM to reach a half-maximal effect on Mu-type opioid receptor [6] (EC50). On Mu-type opioid receptor [5], this compound had a 50% inhibitory concentration (IC50) of 270 nM.
With `NC(=O)c1ccc2c(c1O)[C@]13CCN(CC4CC4)[C@H](C2)[C@]1(O)Cc1c([nH]c2ccccc12)C3`, the Ki in assay [1] was 0.025 nM; at Mu-type opioid receptor [3], 0.51 nM; in [4] it was 0.81 nM. The values for the IC50 in assay [2] and in assay [7] were 28 nM and 0.08 nM, respectively.
Regarding `NC(=O)c1ccc2c(c1O)[C@]13CCN(CC4CCC4)[C@H](C2)[C@]1(O)CC[C@@H](O)C3`, the EC50 in [8] worked out at 3.7 nM. This compound also gave a concentration for half-maximal inhibition (IC50) in assay [7] of 130 nM. The compound also returned an Imax in assay [9] of 25%.
Compound `NC(=O)c1ccc2c3c1O[C@H]1[C@@H](O)CC[C@@]4(O)[C@@H](C2)N(CC2CCC2)CC[C@]314` gave an Imax at Mu-type opioid receptor [10] of 56%.
`NC(=O)c1ccc2c3c1O[C@H]1CCC[C@@]4(O)[C@@H](C2)N(CC2CC2)CC[C@]314`: the inhibition constant Ki in assay [1] is 630 nM; on Mu-type opioid receptor [3], 2.5 nM; in assay [4], 16 nM. On Mu-type opioid receptor [5], this compound showed an IC50 of 54 nM.
Take `C[N+]1(CC2CC2)CC[C@]23c4c5ccc(C(N)=O)c4O[C@H]2C(=O)CC[C@@]3(O)[C@H]1C5` (stereo partly specified): the Ki in assay [1] was above 10000 nM; on Mu-type opioid receptor [3], 37 nM.
With `C[N+]1(CC2CC2)CC[C@]23c4c5ccc(O)c4O[C@H]2C(=O)CC[C@@]3(O)[C@H]1C5` (stereo partly specified) [NALTREXONE METHIODIDE], the EC50 in [11] amounted to 9 nM. For the same compound, the IC50 against Mu-type opioid receptor [5] came out at 170 nM. In addition, in [9], the Imax was 60%.
`CN1CC[C@]23CC(=O)CC[C@H]2[C@H]1Cc1ccc(C(N)=O)c(O)c13`: the results for the Ki (in assay [1]; at Mu-type opioid receptor [3]; in [4]) were 8.3 nM, 0.3 nM and 2.3 nM, respectively. Further, the values for the EC50 (at Mu-type opioid receptor [6]; in assay [11]) were 1.6 nM and 3.9 nM, respectively.
Consider `NC(=O)c1ccc2c(c1O)[C@]13CCN(CC4CC4)[C@H](C2)[C@]1(O)CCC(=O)C3`, for which the half-maximal inhibitory concentration (IC50) was found to be 38 nM in assay [2], 6.9 nM in assay [7] and 0.88 nM at Mu-type opioid receptor [5]. Besides, the values for the EC50 in assay [8] and in [11] were 1.8 nM and 3.3 nM, respectively.
For `NC(=O)c1ccc2c(c1O)[C@@]13CCCC[C@@]1(O)[C@@H](C2)N(CC1CC1)CC3`, the IC50 in assay [2] stood at 57 nM; in assay [7] it was 5.8 nM. The EC50 in assay [11] is 2.3 nM.
With `NC(=O)c1ccc2c(c1O)[C@]13CCN(CC4CCC4)[C@H](C2)[C@]1(O)CC[C@H](O)C3`, the Imax in assay [9] amounted to 36%.
For `NC(=O)c1ccc2c3c1O[C@H]1c4[nH]c5ccccc5c4C[C@@]4(O)[C@@H](C2)N(CC2CC2)CC[C@]314`, the Ki worked out at 0.3 nM in assay [1], 46 nM on Mu-type opioid receptor [3] and 47 nM in [4]. For the same compound, 0.77 nM corresponded to half-maximal inhibition in [7] (IC50).
On to `CN1CC[C@]23c4c5ccc(C(N)=O)c4O[C@H]2C(=O)CC[C@H]3[C@H]1C5`, for which the Ki in assay [1] stood at 260 nM; at Mu-type opioid receptor [3], 1.2 nM. For the same compound, on Mu-type opioid receptor [6], the 50% effective concentration (EC50) was determined as 110 nM.
